Test results as given in patent publication US12291519B2, “2-hydroxycycloalkane-1-carbamoyl” (Idorsia Pharmaceuticals Ltd, priority 2019, dated 2025).

Assays:
human Gal-1 (hGal-1) = assay: Competitive binding assay: biotinylated hGal-1 binding to microplate-adsorbed asialofetuin (ASF); settings: Activity on hGal-1; binding of biotinylated hGal-1 to ASF-coated plates; mean values
Outline: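 Inhibition measured as loss of hGal-1 (biotinylated, 300–1000 ng/mL, wild type or Cys→Ser mutant) binding to adsorbed asialofetuin over 3 h at 4 °C. Bound lectin detected with streptavidin-HRP and ABTS (410 nm, 30–45 min); IC50 values averaged across repeat measurements.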

human Gal-3 (hGal-3) = human Gal-3 (hGal-3) (Homo sapiens (Human), UniProt P17931); assay: Competitive binding assay: biotinylated hGal-3 binding to microplate-adsorbed asialofetuin (ASF); settings: Activity on hGal-3; binding of biotinylated hGal-3 to ASF-coated plates; mean values
Outline: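 Serially diluted compounds competed with biotinylated human Gal-3 for binding to plate-adsorbed asialofetuin over 3 h at 4 °C. Bound Gal-3 was detected with streptavidin-peroxidase (80 ng/mL, 1 h, 4 °C) and ABTS substrate. IC50 values are means of several measurements.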

Chain of human Gal-3 (hGal-3) (P17931 whole entry): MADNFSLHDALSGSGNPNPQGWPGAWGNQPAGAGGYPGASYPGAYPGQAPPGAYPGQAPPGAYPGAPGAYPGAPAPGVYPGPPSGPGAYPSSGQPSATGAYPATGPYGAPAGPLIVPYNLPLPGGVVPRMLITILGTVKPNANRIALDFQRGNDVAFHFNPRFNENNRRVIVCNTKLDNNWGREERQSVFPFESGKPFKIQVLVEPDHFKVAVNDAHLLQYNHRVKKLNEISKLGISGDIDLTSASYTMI
Chain of human Gal-1 (hGal-1) (P09382 2-135 limits assumed): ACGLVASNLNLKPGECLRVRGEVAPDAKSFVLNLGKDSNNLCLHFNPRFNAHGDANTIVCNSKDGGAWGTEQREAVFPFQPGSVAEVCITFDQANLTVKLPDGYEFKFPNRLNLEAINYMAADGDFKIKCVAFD

IC50 (human Gal-1 (hGal-1))	IC50 (human Gal-3 (hGal-3))	SMILES
1.13 µM	0.037 µM	CO[C@@H]1[C@@H](n2cc(-c3cc(F)c(Br)c(F)c3)nn2)[C@@H](O)[C@@H](CO)O[C@H]1C(=O)N(c1cc(Cl)cc(Cl)c1)[C@H]1CCCC[C@@H]1O [Example 151, (2R,3R,4S,5R,6R)-4-(4-(4-bromo-3,5-difluorophenyl)-1H-1,2,3-triazol-1-yl)-N-(3,5-dichlorophenyl)-5-hydroxy-N-((1S,2S)-2-hydroxycyclohexyl)-6-(hydroxymethyl)-3-methoxytetrahydro-2H-pyran-2-carboxamide]
3.14 µM	0.062 µM	CO[C@@H]1[C@@H](n2cc(-c3cc(F)c(Br)c(F)c3)nn2)[C@@H](O)[C@@H](CO)O[C@H]1C(=O)N(c1ccc(F)c(F)c1)[C@H]1CCCC[C@@H]1O [Example 152, (2R,3R,4S,5R,6R)-4-(4-(4-bromo-3,5-difluorophenyl)-1H-1,2,3-triazol-1-yl)-N-(3,4-difluorophenyl)-5-hydroxy-N-((1S,2S)-2-hydroxycyclohexyl)-6-(hydroxymethyl)-3-methoxytetrahydro-2H-pyran-2-carboxamide]
1.08 µM	0.025 µM	CO[C@@H]1[C@@H](n2cc(-c3cc(F)c(Br)c(F)c3)nn2)[C@@H](O)[C@@H](CO)O[C@H]1C(=O)N(c1ccc2scnc2c1)[C@H]1CCCC[C@@H]1O [Example 153, (2R,3R,4S,5R,6R)-N-(benzo[d]thiazol-5-yl)-4-(4-(4-bromo-3,5-difluorophenyl)-1H-1,2,3-triazol-1-yl)-5-hydroxy-N-((1S,2S)-2-hydroxycyclohexyl)-6-(hydroxymethyl)-3-methoxytetrahydro-2H-pyran-2-carboxamide]
0.957 µM	0.023 µM	CO[C@@H]1[C@@H](n2cc(-c3cc(F)c(Br)c(F)c3)nn2)[C@@H](O)[C@@H](CO)O[C@H]1C(=O)N(c1cc(Cl)cc(C#N)c1)[C@H]1CCCC[C@@H]1O [Example 154, (2R,3R,4S,5R,6R)-4-(4-(4-bromo-3,5-difluorophenyl)-1H-1,2,3-triazol-1-yl)-N-(3-chloro-5-cyanophenyl)-5-hydroxy-N-((1S,2S)-2-hydroxycyclohexyl)-6-(hydroxymethyl)-3-methoxytetrahydro-2H-pyran-2-carboxamide]
1.51 µM	0.024 µM	CO[C@@H]1[C@@H](n2cc(-c3cc(F)c(Br)c(F)c3)nn2)[C@@H](O)[C@@H](CO)O[C@H]1C(=O)N(c1cc(F)cc(C#N)c1)[C@H]1CCCC[C@@H]1O [Example 155, (2R,3R,4S,5R,6R)-4-(4-(4-bromo-3,5-difluorophenyl)-1H-1,2,3-triazol-1-yl)-N-(3-cyano-5-fluorophenyl)-5-hydroxy-N-((1S,2S)-2-hydroxycyclohexyl)-6-(hydroxymethyl)-3-methoxytetrahydro-2H-pyran-2-carboxamide]
0.798 µM	0.015 µM	CO[C@@H]1[C@@H](n2cc(-c3cc(F)c(C)c(F)c3)nn2)[C@@H](O)[C@@H](CO)O[C@H]1C(=O)N(c1cc(Cl)cc(Cl)c1)[C@H]1CCCC[C@@H]1O [Example 158, (2R,3R,4S,5R,6R)-N-(3,5-dichlorophenyl)-4-(4-(3,5-difluoro-4-methylphenyl)-1H-1,2,3-triazol-1-yl)-5-hydroxy-N-((1S,2S)-2-hydroxycyclohexyl)-6-(hydroxymethyl)-3-methoxytetrahydro-2H-pyran-2-carboxamide]

Second part, the compound before the results:

SMILES	IC50 (human Gal-1 (hGal-1))	IC50 (human Gal-3 (hGal-3))
CO[C@@H]1[C@@H](n2cc(-c3cc(F)cc(Cl)c3)nn2)[C@@H](O)[C@@H](CO)O[C@H]1C(=O)N(c1cc(Cl)cc(Cl)c1)[C@H]1CCCC[C@@H]1O [Example 139, (2R,3R,4S,5R,6R)-4-(4-(3-chloro-5-fluorophenyl)-1H-1,2,3-triazol-1-yl)-N-(3,5-dichlorophenyl)-5-hydroxy-N-((1S,2S)-2-hydroxycyclohexyl)-6-(hydroxymethyl)-3-methoxytetrahydro-2H-pyran-2-carboxamide]	0.86 µM	0.027 µM
CO[C@@H]1[C@@H](n2cc(-c3cc(F)cc(Cl)c3)nn2)[C@@H](O)[C@@H](CO)O[C@H]1C(=O)N(c1cc(C)cc(C#N)c1)[C@H]1CCCC[C@@H]1O [Example 140, (2R,3R,4S,5R,6R)-4-(4-(3-chloro-5-fluorophenyl)-1H-1,2,3-triazol-1-yl)-N-(3-cyano-5-methylphenyl)-5-hydroxy-N-((1S,2S)-2-hydroxycyclohexyl)-6-(hydroxymethyl)-3-methoxytetrahydro-2H-pyran-2-carboxamide]	0.671 µM	0.033 µM
COc1cc(C#N)cc(N(C(=O)[C@@H]2O[C@H](CO)[C@H](O)[C@H](n3cc(-c4cc(F)cc(Cl)c4)nn3)[C@H]2OC)[C@H]2CCCC[C@@H]2O)c1 [Example 141, (2R,3R,4S,5R,6R)-4-(4-(3-chloro-5-fluorophenyl)-1H-1,2,3-triazol-1-yl)-N-(3-cyano-5-methoxyphenyl)-5-hydroxy-N-((1S,2S)-2-hydroxycyclohexyl)-6-(hydroxymethyl)-3-methoxytetrahydro-2H-pyran-2-carboxamide]	1.56 µM	0.056 µM
CO[C@@H]1[C@@H](n2cc(-c3cc(F)cc(Cl)c3)nn2)[C@@H](O)[C@@H](CO)O[C@H]1C(=O)N(c1cccc(C#N)c1)[C@H]1CCCC[C@@H]1O [Example 142, (2R,3R,4S,5R,6R)-4-(4-(3-chloro-5-fluorophenyl)-1H-1,2,3-triazol-1-yl)-N-(3-cyanophenyl)-5-hydroxy-N-((1S,2S)-2-hydroxycyclohexyl)-6-(hydroxymethyl)-3-methoxytetrahydro-2H-pyran-2-carboxamide]	1.67 µM	0.077 µM
CO[C@@H]1[C@@H](n2cc(-c3cc(F)cc(Cl)c3)nn2)[C@@H](O)[C@@H](CO)O[C@H]1C(=O)N(c1cccc(Cl)c1)[C@H]1CCCC[C@@H]1O [Example 143, (2R,3R,4S,5R,6R)-4-(4-(3-chloro-5-fluorophenyl)-1H-1,2,3-triazol-1-yl)-N-(3-chlorophenyl)-5-hydroxy-N-((1S,2S)-2-hydroxycyclohexyl)-6-(hydroxymethyl)-3-methoxytetrahydro-2H-pyran-2-carboxamide]	1.41 µM	0.024 µM
CO[C@@H]1[C@@H](n2cc(-c3cc(F)cc(Br)c3)nn2)[C@@H](O)[C@@H](CO)O[C@H]1C(=O)N(c1cc(Cl)cc(Cl)c1)[C@H]1CCCC[C@@H]1O [Example 144, (2R,3R,4S,5R,6R)-4-(4-(3-bromo-5-fluorophenyl)-1H-1,2,3-triazol-1-yl)-N-(3,5-dichlorophenyl)-5-hydroxy-N-((1S,2S)-2-hydroxycyclohexyl)-6-(hydroxymethyl)-3-methoxytetrahydro-2H-pyran-2-carboxamide]	0.726 µM	0.061 µM
CO[C@@H]1[C@@H](n2cc(-c3cc(F)cc(Br)c3)nn2)[C@@H](O)[C@@H](CO)O[C@H]1C(=O)N(c1cc(Cl)cc(C#N)c1)[C@H]1CCCC[C@@H]1O [Example 145, (2R,3R,4S,5R,6R)-4-(4-(3-bromo-5-fluorophenyl)-1H-1,2,3-triazol-1-yl)-N-(3-chloro-5-cyanophenyl)-5-hydroxy-N-((1S,2S)-2-hydroxycyclohexyl)-6-(hydroxymethyl)-3-methoxytetrahydro-2H-pyran-2-carboxamide]	0.218 µM	0.018 µM
CO[C@@H]1[C@@H](n2cc(-c3cc(F)cc(Br)c3)nn2)[C@@H](O)[C@@H](CO)O[C@H]1C(=O)N(c1cc(C)cc(C#N)c1)[C@H]1CCCC[C@@H]1O [Example 146, (2R,3R,4S,5R,6R)-4-(4-(3-bromo-5-fluorophenyl)-1H-1,2,3-triazol-1-yl)-N-(3-cyano-5-methylphenyl)-5-hydroxy-N-((1S,2S)-2-hydroxycyclohexyl)-6-(hydroxymethyl)-3-methoxytetrahydro-2H-pyran-2-carboxamide]	0.751 µM	0.05 µM
CO[C@@H]1[C@@H](n2cc(-c3cc(F)cc(Br)c3)nn2)[C@@H](O)[C@@H](CO)O[C@H]1C(=O)N(c1cc(F)cc(Cl)c1)[C@H]1CCCC[C@@H]1O [Example 147, (2R,3R,4S,5R,6R)-4-(4-(3-bromo-5-fluorophenyl)-1H-1,2,3-triazol-1-yl)-N-(3-chloro-5-fluorophenyl)-5-hydroxy-N-((1S,2S)-2-hydroxycyclohexyl)-6-(hydroxymethyl)-3-methoxytetrahydro-2H-pyran-2-carboxamide]	0.53 µM	0.071 µM
CO[C@@H]1[C@@H](n2cc(-c3cc(F)cc(Br)c3)nn2)[C@@H](O)[C@@H](CO)O[C@H]1C(=O)N(c1cccc(C#N)c1)[C@H]1CCCC[C@@H]1O [Example 148, (2R,3R,4S,5R,6R)-4-(4-(3-bromo-5-fluorophenyl)-1H-1,2,3-triazol-1-yl)-N-(3-cyanophenyl)-5-hydroxy-N-((1S,2S)-2-hydroxycyclohexyl)-6-(hydroxymethyl)-3-methoxytetrahydro-2H-pyran-2-carboxamide]	0.343 µM	0.081 µM
CO[C@@H]1[C@@H](n2cc(-c3cc(F)cc(Br)c3)nn2)[C@@H](O)[C@@H](CO)O[C@H]1C(=O)N(c1cccc(Cl)c1)[C@H]1CCCC[C@@H]1O [Example 149, (2R,3R,4S,5R,6R)-4-(4-(3-bromo-5-fluorophenyl)-1H-1,2,3-triazol-1-yl)-N-(3-chlorophenyl)-5-hydroxy-N-((1S,2S)-2-hydroxycyclohexyl)-6-(hydroxymethyl)-3-methoxytetrahydro-2H-pyran-2-carboxamide]	0.707 µM	0.085 µM
COc1cc(C#N)cc(N(C(=O)[C@@H]2O[C@H](CO)[C@H](O)[C@H](n3cc(-c4cc(F)cc(Br)c4)nn3)[C@H]2OC)[C@H]2CCCC[C@@H]2O)c1 [Example 150, (2R,3R,4S,5R,6R)-4-(4-(3-bromo-5-fluorophenyl)-1H-1,2,3-triazol-1-yl)-N-(3-cyano-5-methoxyphenyl)-5-hydroxy-N-((1S,2S)-2-hydroxycyclohexyl)-6-(hydroxymethyl)-3-methoxytetrahydro-2H-pyran-2-carboxamide]	0.671 µM	0.062 µM
